In patent US5756510A, “Benzamide analogs useful as PARP (ADP-ribosyltransferase, ADPRT) DNA repair enzyme inhibitors” (Newcastle University Ventures Limited, priority 1994, dated 1998):
Values belong to the compound of their own block, whether it stands above or below them.

Legend:
L1210 cells [1] = assay: clonogenic survival assay with temozolomide (TM); conditions: for DEF10 (TM): 16 hours, ± S.E.
Description: (§1) Again using cultures of the murine leukaemia L1210 cell line, growth inhibition experiments were carried out to assess the cytostatic effects of the compounds and clonogenic survival assays were performed to assess cytotoxicity, especially in relation to use of the compounds in conjunction with DNA damaging cytotoxic agents such as cytotoxic antitumour drugs or high energy radiation.
After 7-10 days colonies were stained with 0.5 mg/ml MTT and counted by eye on a gridded light box. Survival curves were plotted and typical DEF10 values obtained are hereinafter given in Table II (DEF10 being defined as the ratio of the concentration of TM that reduces survival to 10% divided by the concentration of TM that reduces survival to 10% in the presence of a fixed concentration of PARP inhibitor). Each DEF10 value in Table II represents the average ratio±S.E. (standard error) derived from the averaged 10% survival for TM alone (675±31 μM from 22 independent survival curves) divided by individual 10% survival values from at least 3 independent survival curves performed in the presence of a fixed concentration of inhibitor.
For NU1025 maximal potentiation of cytotoxicity was obtained by a concentration in the range of 50-100 μM, and was significant at doses as low as 10 μM.

[2] = system: DNA strand breaks in L1210 cells; assay: DNA strand break assay (alkaline elution); assay type: cell-based, murine; conditions: for effect on DNA strand break levels, compound alone: 24 hour incubation
Description: as §1
All the compounds were tested for their ability to produce strand breaks when used alone.

L1210 cells [3] = assay: growth inhibition assay, alone or with temozolomide; assay type: cell-based, murine; conditions: Mus musculus, L1210, 48 h
Description: as §1
At this time one set of replicates would be counted using a Coulter counter (N0), and 48 hours later the remaining samples would be counted (N1). The percentage (%) growth inhibition of drug-treated samples could then be estimated. In drug combination experiments, where evidence of synergistic effects on cell growth or clonogenicity was being sought, a single, fixed concentration of a cytotoxic drug sample, e.g. temozolomide, would be taken as the control value.

in vitro = conditions: mouse, l1210 cells
Description: as §1

L1210 cells [4] = assay: repair of potentially lethal damage (PLD) after gamma ray irradiation; assay type: cell-based, murine; conditions: 8 Gray gamma ray; 10 mM 3AB or 200 μM NU1025
Description: Repair of potentially lethal damage (PLD) occurs when cells are held in stationary-phase following initiation of PLD prior to allowing cell division to take place. In further typical experiments, L1210 cells were allowed to repair gamma ray PLD in the presence or absence of 3AB or NU1025 as follows. L1210 cells were maintained in culture until they had attained stationary phase (>10^6 cells/ml). They were diluted to […] in conditioned medium from stationary-phase cultures to prevent further cell division. Replicate 2 ml samples of cells in plastic bijoux were held on ice prior to and immediately following 8 Gray gamma ray irradiation. 1 ml of 3x final concentration of compounds 3AB or NU1025 made up in conditioned medium from stationary cultures was added (to give final concentrations of 10^6 cells/ml in 1% DMSO ±10 mM 3AB or 200 μM NU1025) and the cells were incubated at 37° C. for 0, 2 or 4 hours prior to resuspending in drug-free medium and seeding for colony formation. Unirradiated stationary phase cultures incubated at 37° C. for 0, 2 or 4 hours with 1% DMSO ±10 mM 3AB or 200 μM NU1025 were used as appropriate controls for determining relative cell survival. In the absence of PARP inhibitor cell survival increased with time allowed for PLD repair to take place. […]

PARP = target: T1, PARP (Mus musculus, UniProt P11103); assay: PARP inhibition assay ([32P]-NAD incorporation into TCA-precipitated poly(ADP-ribose) in permeabilised L1210 cells, oligonucleotide activated); assay type: biochemical, L1210 murine leukaemia cells
T1 construct: endogenous in cells; host or cells: L1210 murine leukaemia cells, permeabilised by hypotonic buffer and cold shock
From the text: In principle, the PARP assay used relies upon activating endogenous PARP (as hereinafter described) in cells containing exogenous [^32 P]-NAD^+ introduced therein by suspending the cells in a solution of [^32 P]-NAD^+ to which they have been rendered permeable in an initial pretreatment step. The poly(ADP-ribose) which is then synthesised by the enzyme can be precipitated by trichloracetic acid (TCA) and the amount of radio-labelled ^32 p incorporated therein measured, e.g. using a scintillation counter, to give a measure of the activity of the PARP under the particular conditions of the experiment. By repeating the experiment following the same procedure, and under the same conditions, in the presence of each compound to be tested the reduction in enzyme activity, representative of the inhibitory effect of the test compound, can then be ascertained from the reduction, if any, of the amount of [^32 P] measured in the TCA precipitated poly(ADP-ribose).
Thus, with a range of different compounds a set of comparative values for inhibitory activity can be obtained.
In practice, L1210 murine leukaemia cells were used as the source of the PARP enzyme after being rendered permeable to exogenous [^32 P]NAD by exposure to hypotonic buffer and cold shock. […] This oligonucleotide sequence snaps back on itself to form a double-stranded molecule with a single blunt end and provides an effective substrate for activation of PARP.
The experimental protocol adopted, in which a synthetic oligonucleotide as mentioned above is introduced as a specific activator of PARP, discriminates between PARP and other mono-ADP-ribosyltransferases in the cells.
The oligonucleotide having the palindromic sequence […], synthesised by conventional means, was vacuum dried and stored as pellets in a freezer. Before use, it was made up to 200 μg/ml in 10 mM Tris/HCl, pH 7.8, with each pellet being dissolved completely in […] of buffer. The solution was then heated to 60° C. in a water bath for 15 minutes, and allowed to cool slowly to ensure correct reannealing. After adding 9.5 ml of buffer, the concentration was checked by measuring the optical density of a diluted sample at 260 nm. The main solution was then diluted to a concentration of 200 μg/ml and stored in 500 μl aliquots in a freezer, ready for use.
The L1210 cells used as the source of the PARP enzyme were maintained as a suspension culture in RPMI medium+10% foetal bovine serum+glutamine and antibiotics (penicillin and streptomycin). HEPES and sodium bicarbonate were also added, and the cells were seeded in 100 ml of medium such that there would be a concentration of approximately 8×10^5 /ml at the time of carrying out an assay.
The solubility of the compound was then checked by adding a quantity of the DMSO solution to a quantity of the isotonic buffer, in the required final proportions that were to be used in carrying out the assay, and after an interval the solution was examined under a microscope for any signs of crystals forming.
A desired quantity of the cells, ascertained by counting with a haemocytometer, was then centrifuged (1500 rpm in a "Europa" model 24M centrifuge for 5 minutes), the supernatant removed, and the pellets obtained were resuspended in 20 ml Dul A at 4° C. before centrifuging again at 1500 rpm and 4° C. After again removing the supernatant, the cells were resuspended at a concentration of 3×10^7 cells/ml in ice cold hypotonic buffer and left for 30 minutes on ice. Nine volumes were then added of ice cold isotonic buffer, and the cells, now rendered permeable to exogenous NAD^+, were then used within the next hour for carrying out an assay.

[5] = half life of temozolomide in culture; assay type: physicochemical
L1210 cells [6] = assay: clonogenic survival assay, gamma ray irradiation; assay type: cell-based, murine; conditions: 200 μM
Description: In other clonogenic survival assays gamma ray irradiation was used to damage the cells. Typically, L1210 cells (3 ml, 4×10^3 /ml in plastic bijoux bottles) were irradiated at 4° C. with varying doses of gamma rays in the presence or absence of 10 mM 3AB or 200 μM NU1057 and a final concentration of 2% DMSO. The cells were then incubated at 37° C. for 2 hours in the continued presence or absence of PARP inhibitor prior to seeding for colony formation.

[7] = read-out: IC50 INHIBITOR + 100 μM TM (growth inhibition)
[8] = read-out: IC50 INHIBITOR ALONE (growth inhibition)

T1 sequence (P11103 whole entry): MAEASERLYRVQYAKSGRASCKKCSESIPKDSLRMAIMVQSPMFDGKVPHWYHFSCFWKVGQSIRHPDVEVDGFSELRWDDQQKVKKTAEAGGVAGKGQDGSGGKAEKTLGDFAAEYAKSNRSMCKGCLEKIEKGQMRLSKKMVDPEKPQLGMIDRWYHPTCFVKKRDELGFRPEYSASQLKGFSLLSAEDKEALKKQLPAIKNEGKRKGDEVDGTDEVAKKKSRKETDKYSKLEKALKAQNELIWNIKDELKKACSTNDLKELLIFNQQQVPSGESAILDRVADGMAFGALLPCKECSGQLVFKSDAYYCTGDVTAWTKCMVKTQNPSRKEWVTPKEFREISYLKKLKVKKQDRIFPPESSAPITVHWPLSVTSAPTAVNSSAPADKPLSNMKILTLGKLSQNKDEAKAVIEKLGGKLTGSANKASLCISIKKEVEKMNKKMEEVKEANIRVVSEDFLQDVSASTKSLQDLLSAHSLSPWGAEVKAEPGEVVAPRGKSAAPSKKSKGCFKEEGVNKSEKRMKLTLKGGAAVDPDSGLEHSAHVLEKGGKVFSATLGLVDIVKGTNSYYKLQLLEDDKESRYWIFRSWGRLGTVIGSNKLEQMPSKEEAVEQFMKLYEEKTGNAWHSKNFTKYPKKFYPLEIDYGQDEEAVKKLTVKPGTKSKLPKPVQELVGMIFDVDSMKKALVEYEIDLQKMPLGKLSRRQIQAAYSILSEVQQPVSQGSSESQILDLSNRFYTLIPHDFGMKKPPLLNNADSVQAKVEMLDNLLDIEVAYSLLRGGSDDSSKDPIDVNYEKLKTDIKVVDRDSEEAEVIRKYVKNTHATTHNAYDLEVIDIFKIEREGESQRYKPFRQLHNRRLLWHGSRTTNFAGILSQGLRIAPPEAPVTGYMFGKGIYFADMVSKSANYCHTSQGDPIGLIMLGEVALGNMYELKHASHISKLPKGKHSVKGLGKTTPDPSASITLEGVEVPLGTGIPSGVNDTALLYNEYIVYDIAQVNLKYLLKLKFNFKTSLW

Structure (SMILES): Cc1nc2c(O)cccc2c(=O)[nH]1 [NU1025, 8-Hydroxy-2-methylquinazolin-4-[3H]-one]
DEF10 (TM) (L1210 cells [1]; 10 μM inhibitor): 2.0 ± 0.2 | DEF10 (TM) (L1210 cells [1]; 100 μM inhibitor): 5.1 ± 0.7 | effect on DNA strand break levels, compound alone ([2]; 1 mM): no significant effect on DNA strand break levels | IC50 (L1210 cells [3]; [7]): 40 µM | IC50 (L1210 cells [3]; [8]): 410 µM | CC50 at 24 h (in vitro): 1600 ± 100 µM | effect on PLD repair in words (L1210 cells [4]): blocked this repair

Structure (SMILES): NC(=O)c1cccc(N)c1 [3-aminobenzamide]
inhibition at 10 µM (PARP; read-out: % Inhibition (PARP)): 36% | inhibition at 30 µM (PARP; 30 μM, read-out: % Inhibition (PARP)): 63% | inhibition at 100 µM (PARP; 100 μM, read-out: % Inhibition (PARP)): 79% | DEF10 (TM) (L1210 cells [1]; 1 mM inhibitor): 2.4 ± 0.3 | DEF10 (TM) (L1210 cells [1]; 5 mM inhibitor): 4.1 ± 0.4 | DEF10 (TM) (L1210 cells [1]; 5 mM inhibitor, listed as 3AB): about 4 | concentration above which strand breakage with TM increases significantly ([2]; 150 μM TM, 1 hour): > 5 mM | effect on DNA strand break levels, compound alone ([2]; 20 mM): no significant effect on DNA strand break levels | IC50 (L1210 cells [3]; [7]): 2500 ± 100 µM | IC50 (L1210 cells [3]; [8]): 6700 ± 200 µM | CC50 at 24 h (in vitro): 14000 ± 1000 µM | effect on PLD repair in words (L1210 cells [4]): blocked this repair

Structure (SMILES): Cn1nnc2c(C(N)=O)ncn2c1=O [TM, temozolomide]
IC50 (L1210 cells [1]; Mus musculus, L1210, 16 h, read-out: LD50 of TM alone): 251 ± 13 µM | IC90 (L1210 cells [1]; Mus musculus, L1210, 16 h, read-out: concentration of TM alone that reduces survival to 10%): 675 ± 31 µM | cytotoxicity at 150 µM (L1210 cells [1]; Mus musculus, L1210, read-out: reduction of survival): ~30% | minimal effective concentration ([2]; Mus musculus, L1210, 1 h, read-out: lowest TM level with detectable changes in DNA strand break levels): 150 µM | rate of elution (DNA strand breakage) in words ([2]; TM, 1 hour treatment): concentration-dependent increase in the rate of elution | IC50 (L1210 cells [3]; read-out: IC50 of TM alone (inhibition of cell growth)): 361 ± 25 µM | half-life [5]: ~40 min

IC50 (PARP): 0.23 µM | PARP inhibitory activity in words (PARP): potent PARP inhibitors | inhibition at 10 µM (PARP; read-out: % Inhibition (PARP)): 92%
Structure (SMILES): O=c1[nH]c(-c2ccc([N+](=O)[O-])cc2)nc2c(O)cccc12 [NU1057, 8-Hydroxy-2-(4-nitrophenyl)quinazolin-4-one]
potentiation of gamma ray cytotoxicity in words (L1210 cells [6]): significant potentiation of gamma ray cytotoxicity | DEF10 (gamma ray cytotoxicity) (L1210 cells [6]; 2% DMSO, 2 hours at 37° C.): 1.1
